Test results from US20250282799A1, “SUBSTITUTED PYRIDO[4,3-d]PYRIMIDINES AS KRAS MODULATORS” (Alterome Therapeutics, Inc., priority 2023, published 2025).

How the values were obtained:
[1] = tested on: KRAS G12V dependent lung adenocarcinoma cell line, NCI-H441; assay: Cellular pERK (Thr202/Tyr204) FRET/HTRF assay; assay type: cell-based; conditions: Homo sapiens
Method in brief: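 Adherent NCI-H441 cells, plated the previous night, receive test compound for one hour at 37 °C. They are then lysed with a buffer containing phosphatase inhibitors and incubated at room temperature with Eu3+-cryptate and d2 labelled anti-pERK antibodies. HTRF signal gives IC50 by curve fitting.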

[2] = Pharmacokinetic evaluation, single dosing (oral and intravenous) in rats; assay type: in vivo, male Sprague-Dawley rats; set-up: unit not given here; conditions: rat, plasma
Description: Pharmacokinetic profile for test compound was measured by single dosing in male Sprague-Dawley rats. Animal weights were typically over 200 grams, and animals were allowed to acclimate to their new environment for at least 3 days prior to the initiation of any studies. One set of animals was dosed intravenous with test compound, 2 mg/kg in 20% PEG400, 10% HS-15 Solutol, 70% 50 mM citrate buffer (pH 4.0). Intravenous dosing solution concentration was 1.0 mg/mL. Time of blood sampling was 5 minutes, 15 minutes, 30 minutes, 1 hour, 2 hours, 4 hours, 8 hours, and 24 hours following intravenous dosing. Another set of animals was dosed orally with test compound, 30 mg/kg in 20% PEG400, 10% HS-15 Solutol, 70% 50 mM citrate buffer (pH 4.0). Oral dosing solution concentration was 3.0 mg/mL. Time of blood sampling was 15 minutes, 30 minutes, 1 hour, 2 hours, 4 hours, 8 hours, and 24 hours following oral dosing. Blood samples (˜0.2 mL/sample) were collected via jugular vein and placed in tubes containing Heparin-Na. The blood samples in tubes were mixed and then placed on wet ice prior to centrifugation for plasma. The blood samples were centrifuged at 4000 g for 5 minutes at 4° C. to obtain plasma. The obtained plasma was separated and stored frozen at approximately −80° C.
All the plasma samples were analyzed using a Shimadzu (DGU-405) HPLC with an API 6500+MS/MS system following the manufacturer's instructions. All the analytes were detected with positive-mode electrospray ionization (ES+). A standard curve for each test compound was generated and used to measure test compound concentrations in the rat plasma samples. Based on the time course sampling, an area under the curve (AUC) was calculated for the oral group and intravenous group. The percentage of rat bioavailability is calculated based on the equation shown below.
where F is bioavailability, AUCPO is area under curve of oral dosing, AUCIV is area under curve of intravenous dosing, DoseIV is the intravenous dose and DosePO is the oral dose. The oral dosing for the experiments presented in Table 5 was performed at 10 mg/kg unless noted otherwise.

[3] = NCI-H441, pERK HTRF, NCI-H441 cells (KRAS G12V)
[4] = NCI-H441, cellular pERK (Thr202/Tyr204) HTRF, NCI-H441 cells

SMILES	IC50 [1, 3] [nM]	IV (dose 2 mg/kg) (AUC/D) (h*mg/mL) [2]	PO (dose 10 mg/kg) (AUC/D) (h*mg/mL) [2]	PO (AUC/D) (h*mg/mL), dose 30 mg/kg [2]	IC50 [1, 4] [nM]
[2H]C([2H])([2H])Oc1c(F)ccc2cc(N)cc(-c3ncc4c(N5CCCC[C@H]6[C@H](F)[C@H]65)nc(OC([2H])([2H])[C@@]56CCCN5C[C@H](F)C6)nc4c3F)c12 [Example 58, 6-Fluoro-4-(8-fluoro-4-((1S,7R,8S)-8-fluoro-2-azabicyclo[5.1.0]octan-2-yl)-2-(((2R,7aS)-2-fluorotetrahydro-1H-pyrrolizin-7a(5H)-yl)methoxy-d2)pyrido[4,3-d]pyrimidin-7-yl)-5-(methoxy-d3)naphthalen-2-amine]	< 50	1401	432	–	–
[2H]C([2H])([2H])Oc1c(F)ccc2cc(N)cc(-c3ncc4c(N5CCOC[C@H]6[C@H](F)[C@H]65)nc(OC([2H])([2H])[C@@]56CCCN5C[C@H](F)C6)nc4c3F)c12 [Example 90, 6-Fluoro-4-(8-fluoro-4-((1S,7S,8S)-8-fluoro-5-oxa-2-azabicyclo[5.1.0]octan-2-yl)-2-(((2R,7aS)-2-fluorotetrahydro-1H-pyrrolizin-7a(5H)-yl)methoxy-d2)pyrido[4,3-d]pyrimidin-7-yl)-5-(methoxy-d3)naphthalen-2-amine]	< 50	1086	–	352	–
[2H]C([2H])([2H])Oc1c(F)ccc2cc(N)cc(-c3ncc4c(N5CCCO[C@H]6[C@H](F)[C@H]65)nc(OC([2H])([2H])[C@@]56CCCN5C[C@H](F)C6)nc4c3F)c12 [Example 91, 6-Fluoro-4-(8-fluoro-4-((1R,7S,8R)-8-fluoro-2-oxa-6-azabicyclo[5.1.0]octan-6-yl)-2-(((2R,7aS)-2-fluorotetrahydro-1H-pyrrolizin-7a(5H)-yl)methoxy-d2)pyrido[4,3-d]pyrimidin-7-yl)-5-(methoxy-d′3) naphthalen-2-amine]	< 50	609	142	–	–
[2H]C([2H])(Oc1nc(N2CCCC[C@H]3[C@H](F)[C@H]32)c2cnc(-c3cc(O)cc4ccc(F)c(C#C)c34)c(F)c2n1)[C@@]12CCCN1C[C@H](F)C2 [Example 216, 5-ethynyl-6-fluoro-4-(8-fluoro-4-((1S,7R,8S)-8-fluoro-2-azabicyclo[5.1.0]octan-2-yl)-2-(((2R,7aS)-2-fluorotetrahydro-1H-pyrrolizin-7a(5H)-yl)methoxy-d2)pyrido[4,3-d]pyrimidin-7-yl)naphthalen-2-ol]	–	96	0.0	–	< 50
[2H]C([2H])(Oc1nc(N2CCOC[C@H]3[C@H](F)[C@H]32)c2cnc(-c3cc(O)cc4ccc(F)c(C#C)c34)c(F)c2n1)[C@@]12CCCN1C[C@H](F)C2 [Example 217, 5-Ethynyl-6-fluoro-4-(8-fluoro-4-((1S,7S,8S)-8-fluoro-5-oxa-2-azabicyclo[5.1.0]octan-2-yl)-2-(((2R,7aS)-2-fluorotetrahydro-1H-pyrrolizin-7a(5H)-yl)methoxy-d2)pyrido[4,3-d]pyrimidin-7-yl)naphthalen-2-ol]	–	143	–	0.5	< 50
[2H]C([2H])(Oc1nc(N2CCOC[C@H]3[C@H](F)[C@H]32)c2cnc(-c3cc(O)cc4ccc(Cl)c(C#C)c34)c(F)c2n1)[C@@]12CCCN1C[C@H](F)C2 [Example 260, 6-chloro-5-ethynyl-4-(8-fluoro-4-((1S,7S,8S)-8-fluoro-5-oxa-2-azabicyclo[5.1.0]octan-2-yl)-2-(((2R,7aS)-2-fluorotetrahydro-1H-pyrrolizin-7a(5H)-yl)methoxy-d2)pyrido[4,3-d]pyrimidin-7-yl)naphthalen-2-ol]	–	129	0.4	–	< 50
[2H]C([2H])(Oc1nc(N2CCOC[C@H]3[C@H](F)[C@H]32)c2cnc(-c3cc(N)cc4ccc(Cl)c(C#C)c34)c(F)c2n1)[C@@]12CCCN1C[C@H](F)C2 [Example 267, 6-Chloro-5-ethynyl-4-(8-fluoro-4-((1S,7S,8S)-8-fluoro-5-oxa-2-azabicyclo[5.1.0]octan-2-yl)-2-(((2R,7aS)-2-fluorotetrahydro-1H-pyrrolizin-7a(5H)-yl)methoxy-d2)pyrido[4,3-d]pyrimidin-7-yl)naphthalen-2-amine]	–	1066	97	–	< 50
